Reference: patent US11524966B1 (Valo Early Discovery, Inc., priority 2017, dated 2022)

Target: T1, USP28 (USP28-5(1-1077)-TEV-6*His; LifeSensors) (Homo sapiens, UniProt Q96RU2)
T1 construct: construct USP28 (USP28-5(1-1077)-TEV-6*His; LifeSensors); TEV cleavage site (C); 6xHis (C); purchased LifeSensors
T1 sequence (Q96RU2 1-1077): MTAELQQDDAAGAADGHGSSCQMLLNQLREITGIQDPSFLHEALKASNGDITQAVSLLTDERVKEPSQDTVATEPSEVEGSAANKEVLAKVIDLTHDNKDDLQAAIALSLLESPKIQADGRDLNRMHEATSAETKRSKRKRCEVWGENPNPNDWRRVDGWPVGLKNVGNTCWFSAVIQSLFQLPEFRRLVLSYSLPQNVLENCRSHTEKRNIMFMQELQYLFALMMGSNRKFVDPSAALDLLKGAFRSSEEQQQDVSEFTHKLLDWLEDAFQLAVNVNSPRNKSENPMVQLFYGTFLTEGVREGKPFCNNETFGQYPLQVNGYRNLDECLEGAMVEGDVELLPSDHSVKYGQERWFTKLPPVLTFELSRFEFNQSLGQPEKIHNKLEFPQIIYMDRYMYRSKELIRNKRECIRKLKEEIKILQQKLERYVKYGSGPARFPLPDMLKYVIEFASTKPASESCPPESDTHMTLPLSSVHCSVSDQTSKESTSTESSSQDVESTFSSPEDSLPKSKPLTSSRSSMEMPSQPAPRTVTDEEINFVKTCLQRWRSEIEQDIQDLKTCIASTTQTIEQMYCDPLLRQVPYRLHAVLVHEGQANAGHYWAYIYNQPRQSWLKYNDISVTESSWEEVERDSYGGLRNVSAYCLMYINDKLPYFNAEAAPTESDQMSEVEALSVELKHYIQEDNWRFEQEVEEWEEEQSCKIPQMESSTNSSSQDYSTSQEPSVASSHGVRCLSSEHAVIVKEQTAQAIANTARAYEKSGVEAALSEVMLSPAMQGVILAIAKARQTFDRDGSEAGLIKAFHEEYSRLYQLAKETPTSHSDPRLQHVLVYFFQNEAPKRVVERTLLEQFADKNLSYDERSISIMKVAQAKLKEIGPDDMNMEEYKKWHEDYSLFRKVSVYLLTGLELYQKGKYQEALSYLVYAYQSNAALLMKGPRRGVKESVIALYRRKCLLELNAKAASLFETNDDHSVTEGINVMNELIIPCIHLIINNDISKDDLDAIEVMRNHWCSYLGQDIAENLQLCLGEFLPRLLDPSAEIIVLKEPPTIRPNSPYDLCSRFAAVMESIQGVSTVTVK
Assay: Ubiquitin-Rhodamine 110 Assay for USP28 Activity, Example A-1(b)
Assay type: biochemical
Settings: Ubiquitin-Rhodamine 110 assay
How it was run: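 Single-point screening used 10 μM compound with 90 min room-temperature incubation; follow-up dose-responses (25 μM top, 3-fold) used 75 pM USP28 1-1077 construct, 30 min compound preincubation, 25 nM Ub-Rh110, 20 min reaction, citric acid quench. Rh110 fluorescence normalised to no-enzyme and DMSO controls; IC50 from 4-parameter logistic fit.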

| SMILES | USP28 A-1(b) IC50 range (format Example A-1(b)) | USP28 A-1(b) IC50 range (Example A-1(b)) |
| --- | --- | --- |
| Cc1ccc2c(N)c(C(=O)N[C@H]3CCc4c(F)c(N5CCNCC5)cc(F)c4C3)sc2n1 (single isomer, unassigned) [Example 22-1] | ++ (0.2-2 μM) |  |
| Cc1cnc2c(N)c(C(=O)N[C@@H]3CCc4cc(N5CC6CCC(C5)N6)cc(F)c4C3)sc2n1 (single isomer, unassigned) [Example 11-14] |  | +++ (0.05-0.2 μM) |
| COc1ccc2c(N)c(C(=O)N[C@@H]3CCc4cc(N5CC6CCC(C5)N6)ccc4C3)sc2n1 (single isomer, unassigned) [Example 11-6] |  | + (>2 μM) |
| Cc1ccc2c(N)c(C(=O)N[C@H]3COc4cc(N5CCNCC5)ncc4C3)sc2n1 [Example 16, (R)-3-Amino-6-methyl-N-(7-(piperazin-1-yl)-3,4-dihydro-2H-pyrano[3,2-c]pyridin-3-yl)thieno[2,3-b]pyridine-2-carboxamide] | ++ (0.2-2 μM) |  |
| Cc1ccc2c(N)c(C(=O)N[C@H]3CCc4cc(N5CC6CCC(C5)N6)ccc4C3)sc2n1 [Example 11-1, N-((2S)-6-(3,8-diazabicyclo[3.2.1]octan-3-yl)-1,2,3,4-tetrahydronaphthalen-2-yl)-3-amino-6-methylthieno[2,3-b]pyridine-2-carboxamide] |  | +++ (0.05-0.2 μM) |
| Cc1cnc2c(N)c(C(=O)N[C@H]3CCc4cc(N5CC6CCC(C5)N6)cc(F)c4C3)sc2n1 (single isomer, unassigned) [Example 11-13] |  | + (>2 μM) |
| Cc1ccc2c(N)c(C(=O)N[C@@H]3CCc4cc(N5CCNCC5)c(F)cc4C3)sc2n1 (single isomer, unassigned) [Example 21-7] | +++ (0.05-0.2 μM) |  |
| Cc1ccc2c(N)c(C(=O)N[C@@H]3CCc4cc(N5CCN[C@H](CO)C5)ccc4C3)sc2n1 (single isomer, unassigned) [Example 7-10] |  | ++ (0.2-2 μM) |
| Cc1ccc2c(N)c(C(=O)N[C@H]3CCc4cc(N5CCNCC5)c(F)cc4C3)sc2n1 (single isomer, unassigned) [Example 21-8] | + (>2 μM) |  |
| COc1ccc2c(N)c(C(=O)N[C@H]3CCc4cc(N5CC6CCC(C5)N6)ccc4C3)sc2n1 (single isomer, unassigned) [Example 11-5] |  | ++ (0.2-2 μM) |
| Cc1ccc2c(N)c(C(=O)N[C@H]3COc4cc(N5CCNCC5)cc(F)c4C3)sc2n1 [Example 10-1, (R)-3-amino-N-(5-fluoro-7-(piperazin-1-yl)chroman-3-yl)-6-methylthieno[2,3-b]pyridine-2-carboxamide] |  | +++ (0.05-0.2 μM) |
| Cc1ccc2c(N)c(C(=O)N[C@H]3CCc4cc(N5CCNCC5)cnc4C3)sc2n1 (single isomer, unassigned) [Example 15-2] | + (>2 μM) |  |
| Cc1cnc2c(N)c(C(=O)N[C@H]3CCc4cc(N5CCNC[C@H](O)C5)ccc4C3)sc2n1 (single isomer, unassigned) [Example 7-6] |  | ++ (0.2-2 μM) |
| Cc1ccc2c(N)c(C(=O)N[C@H]3CCc4cc(N5C6CNCC5C6)ccc4C3)sc2n1 (single isomer, unassigned) [Example 11-35] | ++ (0.2-2 μM) |  |
| Cc1ccc2c(N)c(C(=O)N[C@@H]3CCc4cc(N5CCNCC5)cnc4C3)sc2n1 (single isomer, unassigned) [Example 15-1] | + (>2 μM) |  |
| Cc1ccc2c(N)c(C(=O)N[C@H]3CCc4cc(N5CCNCC5)cc(F)c4C3)sc2n1 (single isomer, unassigned) [Example 11-11] |  | + (>2 μM) |
| Cc1nc2sc(C(=O)N[C@@H]3CCc4cc(N5CC6CCC(C5)N6)ccc4C3)c(N)c2cc1F (single isomer, unassigned) [Example 11-4] |  | +++ (0.05-0.2 μM) |
| CCn1ccc2cc(C(=O)N[C@H]3CCc4cc(N5CC6CCC(C5)N6)ccc4C3)cnc21 (single isomer, unassigned) [Example 11-9] |  | + (>2 μM) |
| Cc1ccc2c(N)c(C(=O)N[C@H]3COc4cc(O[C@H]5COC6(CNC6)C5)ccc4C3)sc2n1 (single isomer, unassigned) [Example 9-2] |  | +++ (0.05-0.2 μM) |
